# Calls of active or inactive are those of the source. How the calls were made is not given here.
# Tested on: CCRIS mutagenicity, Ames/micronucleus/aberration tests
# Assay: CCRIS mutagenicity studies
# [1] = Test System: AMES SALMONELLA TYPHIMURIUM, Strain/Indicator: TA97, Metabolic Activation: NONE, Method: PREINCUBATION
# [2] = Test System: AMES SALMONELLA TYPHIMURIUM, Strain/Indicator: TA98, Metabolic Activation: NONE, Method: PREINCUBATION
# [3] = Test System: AMES SALMONELLA TYPHIMURIUM, Strain/Indicator: TA100, Metabolic Activation: NONE, Method: PREINCUBATION
# [4] = Test System: AMES SALMONELLA TYPHIMURIUM, Strain/Indicator: TA1535, Metabolic Activation: NONE, Method: PREINCUBATION
compound,measurement,setting,value
NC(=O)c1ccccc1O,mutagenic call,"Test System: AMES SALMONELLA TYPHIMURIUM, Strain/Indicator: TA97, Metabolic Activation: HAMSTER, LIVER, S-9, AROCLOR 1254 (10 OR 30%), Method: PREINCUBATION",inactive; negative
same,mutagenic call,[1],inactive; negative
same,mutagenic call,"Test System: AMES SALMONELLA TYPHIMURIUM, Strain/Indicator: TA97, Metabolic Activation: RAT, LIVER, S-9, AROCLOR 1254 (10 OR 30%), Method: PREINCUBATION",inactive; negative
same,mutagenic call,"Test System: AMES SALMONELLA TYPHIMURIUM, Strain/Indicator: TA98, Metabolic Activation: GUINEA PIG, LIVER, S-9, PCB, Method: PREINCUBATION",inactive; negative
same,mutagenic call,"Test System: AMES SALMONELLA TYPHIMURIUM, Strain/Indicator: TA98, Metabolic Activation: HAMSTER, LIVER, S-9, AROCLOR 1254 (10 OR 30%), Method: PREINCUBATION",inactive; negative
same,mutagenic call,"Test System: AMES SALMONELLA TYPHIMURIUM, Strain/Indicator: TA98, Metabolic Activation: HAMSTER, LIVER, S-9, PCB, Method: PREINCUBATION",inactive; negative
same,mutagenic call,"Test System: AMES SALMONELLA TYPHIMURIUM, Strain/Indicator: TA98, Metabolic Activation: MOUSE, LIVER, S-9, PCB, Method: PREINCUBATION",inactive; negative
same,mutagenic call,[2],inactive; negative
same,mutagenic call,"Test System: AMES SALMONELLA TYPHIMURIUM, Strain/Indicator: TA98, Metabolic Activation: RAT, LIVER, S-9, AROCLOR 1254 (10 OR 30%), Method: PREINCUBATION",inactive; negative
same,mutagenic call,"Test System: AMES SALMONELLA TYPHIMURIUM, Strain/Indicator: TA98, Metabolic Activation: RAT, LIVER, S-9, PCB, Method: PREINCUBATION",inactive; negative
same,mutagenic call,"Test System: AMES SALMONELLA TYPHIMURIUM, Strain/Indicator: TA100, Metabolic Activation: GUINEA PIG, LIVER, S-9, PCB, Method: PREINCUBATION",inactive; negative
same,mutagenic call,"Test System: AMES SALMONELLA TYPHIMURIUM, Strain/Indicator: TA100, Metabolic Activation: HAMSTER, LIVER, S-9, AROCLOR 1254 (10 OR 30%), Method: PREINCUBATION",inactive; negative
same,mutagenic call,"Test System: AMES SALMONELLA TYPHIMURIUM, Strain/Indicator: TA100, Metabolic Activation: HAMSTER, LIVER, S-9, PCB, Method: PREINCUBATION",inactive; negative
same,mutagenic call,"Test System: AMES SALMONELLA TYPHIMURIUM, Strain/Indicator: TA100, Metabolic Activation: MOUSE, LIVER, S-9, PCB, Method: PREINCUBATION",inactive; negative
same,mutagenic call,[3],inactive; negative
same,mutagenic call,"Test System: AMES SALMONELLA TYPHIMURIUM, Strain/Indicator: TA100, Metabolic Activation: RAT, LIVER, S-9, AROCLOR 1254 (10 OR 30%), Method: PREINCUBATION",inactive; negative
same,mutagenic call,"Test System: AMES SALMONELLA TYPHIMURIUM, Strain/Indicator: TA100, Metabolic Activation: RAT, LIVER, S-9, PCB, Method: PREINCUBATION",inactive; negative
same,mutagenic call,"Test System: AMES SALMONELLA TYPHIMURIUM, Strain/Indicator: TA1535, Metabolic Activation: HAMSTER, LIVER, S-9, AROCLOR 1254 (10 OR 30%), Method: PREINCUBATION",inactive; negative
same,mutagenic call,[4],inactive; negative
same,mutagenic call,"Test System: AMES SALMONELLA TYPHIMURIUM, Strain/Indicator: TA1535, Metabolic Activation: RAT, LIVER, S-9, AROCLOR 1254 (10 OR 30%), Method: PREINCUBATION",inactive; negative
Nc1ccc(Cc2ccc(N)c(Cc3ccc(N)cc3)c2)cc1,mutagenic call,"Test System: AMES SALMONELLA TYPHIMURIUM, Strain/Indicator: TA97, Metabolic Activation: HAMSTER, LIVER, S-9, AROCLOR 1254 (10%), Method: PREINCUBATION",active; positive
same,mutagenic call,[1],inactive; negative
same,mutagenic call,"Test System: AMES SALMONELLA TYPHIMURIUM, Strain/Indicator: TA97, Metabolic Activation: RAT, LIVER, S-9, AROCLOR 1254 (10%), Method: PREINCUBATION",active; positive
same,mutagenic call,"Test System: AMES SALMONELLA TYPHIMURIUM, Strain/Indicator: TA98, Metabolic Activation: HAMSTER, LIVER, S-9, AROCLOR 1254 (10%), Method: PREINCUBATION",active; positive
same,mutagenic call,[2],inactive; negative
same,mutagenic call,"Test System: AMES SALMONELLA TYPHIMURIUM, Strain/Indicator: TA98, Metabolic Activation: RAT, LIVER, S-9, AROCLOR 1254 (10%), Method: PREINCUBATION",active; positive
same,mutagenic call,"Test System: AMES SALMONELLA TYPHIMURIUM, Strain/Indicator: TA100, Metabolic Activation: HAMSTER, LIVER, S-9, AROCLOR 1254 (10%), Method: PREINCUBATION",active; positive
same,mutagenic call,[3],inactive; negative
same,mutagenic call,"Test System: AMES SALMONELLA TYPHIMURIUM, Strain/Indicator: TA100, Metabolic Activation: RAT, LIVER, S-9, AROCLOR 1254 (10%), Method: PREINCUBATION",active; positive
same,mutagenic call,"Test System: AMES SALMONELLA TYPHIMURIUM, Strain/Indicator: TA1535, Metabolic Activation: HAMSTER, LIVER, S-9, AROCLOR 1254 (10%), Method: PREINCUBATION",inactive; negative
same,mutagenic call,[4],inactive; negative
same,mutagenic call,"Test System: AMES SALMONELLA TYPHIMURIUM, Strain/Indicator: TA1535, Metabolic Activation: RAT, LIVER, S-9, AROCLOR 1254 (10%), Method: PREINCUBATION",inactive; negative
same,mutagenic call,"Test System: AMES SALMONELLA TYPHIMURIUM, Strain/Indicator: TA1537, Metabolic Activation: HAMSTER, LIVER, S-9, AROCLOR 1254 (10%), Method: PREINCUBATION",active; positive
same,mutagenic call,"Test System: AMES SALMONELLA TYPHIMURIUM, Strain/Indicator: TA1537, Metabolic Activation: RAT, LIVER, S-9, AROCLOR 1254 (10%), Method: PREINCUBATION",active; positive
ONc1ccc(Sc2ccccc2)cc1,mutagenic call,"Test System: AMES SALMONELLA TYPHIMURIUM, Strain/Indicator: TA98(1,8-DNP6), Metabolic Activation: NONE, Method: STANDARD PLATE",active; positive
same,mutagenic call,"Test System: AMES SALMONELLA TYPHIMURIUM, Strain/Indicator: TA98(NR), Metabolic Activation: NONE, Method: STANDARD PLATE",active; positive
same,mutagenic call,"Test System: AMES SALMONELLA TYPHIMURIUM, Strain/Indicator: TA98, Metabolic Activation: NONE, Method: STANDARD PLATE",active; positive
[Cl][Ni][Cl],mutagenic call,"End Point: IN VITRO MICRONUCLEUS, Test System: CHL/IU CELLS, Metabolic Activation: NONE",active; positive
same,mutagenic call,"Test System: AMES SALMONELLA TYPHIMURIUM, Strain/Indicator: TA102, Metabolic Activation: NONE, Method: PREINCUBATION",inactive; negative
same,mutagenic call,[4],inactive; negative
same,mutagenic call,"Test System: AMES SALMONELLA TYPHIMURIUM, Strain/Indicator: TA1538, Metabolic Activation: NONE, Method: PREINCUBATION",inactive; negative
same,mutagenic call,"Test System: AMES SALMONELLA TYPHIMURIUM, Strain/Indicator: TA1975, Metabolic Activation: NONE, Method: PREINCUBATION",inactive; negative
same,mutagenic call,"Test System: AMES SALMONELLA TYPHIMURIUM, Strain/Indicator: TA1978, Metabolic Activation: NONE, Method: PREINCUBATION",inactive; negative
same,mutagenic call,"Test System: CHINESE HAMSTER G10, Strain/Indicator: G10 (GPT)/6-THIOGUANINE, Metabolic Activation: NONE",active; positive
same,mutagenic call,"Test System: CHINESE HAMSTER G10, Strain/Indicator: G10/6-THIOGUANINE, Metabolic Activation: NONE",active; positive
same,mutagenic call,"Test System: CHINESE HAMSTER G12, Strain/Indicator: G12 (GPT)/6-THIOGUANINE, Metabolic Activation: NONE",active; positive
same,mutagenic call,"Test System: CHINESE HAMSTER G12, Strain/Indicator: G12/6-THIOGUANINE, Metabolic Activation: NONE",active; positive
same,mutagenic call,"Test System: CHINESE HAMSTER V-79, Strain/Indicator: SP5 V-79 (HPRT)/6-THIOGUANINE, Metabolic Activation: NONE, Method: STANDARD PLATE",inactive; negative
same,mutagenic call,"Test System: CHINESE HAMSTER V-79, Strain/Indicator: SPD8 V-79 (HPRT)/6-THIOGUANINE, Metabolic Activation: NONE, Method: STANDARD PLATE",active; positive
same,mutagenic call,"Test System: E. COLI, Strain/Indicator: WP2 UVRA, Metabolic Activation: NONE, Method: SPOT TEST",active; positive
same,mutagenic call,"Test System: E. COLI, Strain/Indicator: WP2 UVRA, Metabolic Activation: NONE, Method: STANDARD PLATE",active; positive
same,mutagenic call,"Test System: UDS HUMAN AMNION FL CELL LINE, Strain/Indicator: THY INCORP, Metabolic Activation: NONE, Method: LIQUID SCINTILLATION COUNTING",active; positive
Cc1ccc(S(=O)(=O)OCc2ccccc2)cc1,mutagenic call,"Test System: AMES SALMONELLA TYPHIMURIUM, Strain/Indicator: TA100, Metabolic Activation: NONE, Method: STANDARD PLATE",inactive; negative
ClCC1(CCl)[C@H]2CC(Cl)(Cl)[C@]1(CCl)[C@@H](Cl)[C@@H]2Cl,mutagenic call,[3],inactive; negative

# Reference: PubChem BioAssay AID1259407 (Chemical Carcinogenesis Research Information System (CCRIS), 2018)
